According to article PMC8429728, “TNK1 is a ubiquitin-binding and 14-3-3-regulated kinase that can be targeted to block tumor growth” (Nature Communications, 2021):
Like-named read-outs stand apart in the source and are kept apart here.

Experiments:
Assay in all cases: biochemical
Set-up in all cases: Reaction Biology 371-kinase panel at Km ATP, per cent enzyme activity relative to DMSO, single dose in duplicate
NEK7 = NEK7 (Homo sapiens, UniProt Q8TDX7); settings: duplicate measurements, Km ATP
Method in brief: (§1)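 Percent kinase activity relative to vehicle (DMSO) is reported for a 371-kinase in vitro panel at 300 nM compound; IC50 values derive from variable-slope sigmoidal fits with the lower plateau fixed at 0.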

FGR = FGR (Homo sapiens, UniProt P09769); settings: duplicate measurements, Km ATP
Method in brief: as §1

P38b/MAPK11 = P38b/MAPK11 (Homo sapiens, UniProt Q15759); settings: duplicate measurements, Km ATP
Method in brief: as §1

CDK14/cyclin Y (PFTK1) = CDK14/cyclin Y (PFTK1) (Homo sapiens, UniProt O94921); settings: duplicate measurements, Km ATP
Method in brief: as §1

IRAK1 = IRAK1 (Homo sapiens, UniProt P51617); settings: duplicate measurements, Km ATP
Method in brief: as §1

MAST3 = MAST3 (Homo sapiens, UniProt O60307); settings: duplicate measurements, Km ATP
Method in brief: as §1

c-Kit = c-Kit (Homo sapiens, UniProt P10721); settings: duplicate measurements, Km ATP
Method in brief: as §1

STK25/YSK1 = STK25/YSK1 (Homo sapiens, UniProt O00506); settings: duplicate measurements, Km ATP
Method in brief: as §1

KHS/MAP4K5 = KHS/MAP4K5 (Homo sapiens, UniProt Q9Y4K4); settings: duplicate measurements, Km ATP
Method in brief: as §1

WNK1 = WNK1 (Homo sapiens, UniProt Q9H4A3); settings: duplicate measurements, Km ATP
Method in brief: as §1

CLK3 = CLK3 (Homo sapiens, UniProt P49761); settings: duplicate measurements, Km ATP
Method in brief: as §1

CDK17/cyclin Y (PCTK2) = CDK17/cyclin Y (PCTK2) (Homo sapiens, UniProt Q00537); settings: duplicate measurements, Km ATP; read-out: % Enzyme Activity (relative to DMSO controls) / TP-0005801 (0.3µM) / Data 1
Method in brief: as §1

MRCKa/CDC42BPA = MRCKa/CDC42BPA (Homo sapiens, UniProt Q5VT25); settings: duplicate measurements, Km ATP
Method in brief: as §1

MARK3 = MARK3 (Homo sapiens, UniProt P27448); settings: duplicate measurements, Km ATP
Method in brief: as §1

CDK2/cyclin A1 = CDK2/cyclin A1 (Homo sapiens, UniProt P24941); settings: duplicate measurements, Km ATP
Method in brief: as §1

PHKg1 = PHKg1 (Homo sapiens, UniProt Q16816); settings: duplicate measurements, Km ATP
Method in brief: as §1

WEE1 = WEE1 (Homo sapiens, UniProt P30291); settings: duplicate measurements, Km ATP
Method in brief: as §1

CDK1/cyclin A = CDK1/cyclin A (Homo sapiens, UniProt P06493); settings: duplicate measurements, Km ATP
Method in brief: as §1

c-MER = biological target: T1, c-MER (Homo sapiens, UniProt Q12866); settings: duplicate measurements, Km ATP
T1 construct: gene MERTK
Method in brief: as §1

LCK2/ICK = biological target: T2, LCK2/ICK (Homo sapiens, UniProt Q9UPZ9); settings: duplicate measurements, Km ATP
T2 construct: gene CILK1
Method in brief: as §1

[1] = read-out: % Enzyme Activity (relative to DMSO controls) / TP-0005801 (0.3µM) / Data 1
[2] = read-out: % Enzyme Activity (relative to DMSO controls) / TP-0005801 (0.3µM) / Data 2

Chain of PHKg1 (Q16816 whole entry): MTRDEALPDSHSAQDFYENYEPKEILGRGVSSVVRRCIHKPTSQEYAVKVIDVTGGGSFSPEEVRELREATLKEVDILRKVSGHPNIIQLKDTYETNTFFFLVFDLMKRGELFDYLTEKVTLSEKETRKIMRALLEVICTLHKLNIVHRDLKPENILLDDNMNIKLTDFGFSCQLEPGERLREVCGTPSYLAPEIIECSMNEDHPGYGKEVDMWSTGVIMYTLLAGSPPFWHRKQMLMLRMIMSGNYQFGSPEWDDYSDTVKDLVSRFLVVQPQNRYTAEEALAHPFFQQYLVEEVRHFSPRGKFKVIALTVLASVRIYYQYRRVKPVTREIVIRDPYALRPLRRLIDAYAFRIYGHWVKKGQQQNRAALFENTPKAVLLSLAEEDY
Chain of P38b/MAPK11 (Q15759 whole entry): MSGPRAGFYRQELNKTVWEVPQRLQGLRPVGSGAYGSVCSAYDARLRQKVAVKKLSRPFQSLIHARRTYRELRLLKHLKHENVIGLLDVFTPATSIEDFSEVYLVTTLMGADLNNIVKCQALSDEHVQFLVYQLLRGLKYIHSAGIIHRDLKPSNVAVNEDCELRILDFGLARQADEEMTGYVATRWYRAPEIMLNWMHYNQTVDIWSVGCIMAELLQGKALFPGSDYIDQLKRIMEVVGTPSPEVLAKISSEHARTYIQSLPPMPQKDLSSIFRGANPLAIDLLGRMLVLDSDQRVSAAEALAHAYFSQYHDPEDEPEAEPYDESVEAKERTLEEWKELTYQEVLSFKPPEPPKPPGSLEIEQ
Chain of WNK1 (Q9H4A3 whole entry): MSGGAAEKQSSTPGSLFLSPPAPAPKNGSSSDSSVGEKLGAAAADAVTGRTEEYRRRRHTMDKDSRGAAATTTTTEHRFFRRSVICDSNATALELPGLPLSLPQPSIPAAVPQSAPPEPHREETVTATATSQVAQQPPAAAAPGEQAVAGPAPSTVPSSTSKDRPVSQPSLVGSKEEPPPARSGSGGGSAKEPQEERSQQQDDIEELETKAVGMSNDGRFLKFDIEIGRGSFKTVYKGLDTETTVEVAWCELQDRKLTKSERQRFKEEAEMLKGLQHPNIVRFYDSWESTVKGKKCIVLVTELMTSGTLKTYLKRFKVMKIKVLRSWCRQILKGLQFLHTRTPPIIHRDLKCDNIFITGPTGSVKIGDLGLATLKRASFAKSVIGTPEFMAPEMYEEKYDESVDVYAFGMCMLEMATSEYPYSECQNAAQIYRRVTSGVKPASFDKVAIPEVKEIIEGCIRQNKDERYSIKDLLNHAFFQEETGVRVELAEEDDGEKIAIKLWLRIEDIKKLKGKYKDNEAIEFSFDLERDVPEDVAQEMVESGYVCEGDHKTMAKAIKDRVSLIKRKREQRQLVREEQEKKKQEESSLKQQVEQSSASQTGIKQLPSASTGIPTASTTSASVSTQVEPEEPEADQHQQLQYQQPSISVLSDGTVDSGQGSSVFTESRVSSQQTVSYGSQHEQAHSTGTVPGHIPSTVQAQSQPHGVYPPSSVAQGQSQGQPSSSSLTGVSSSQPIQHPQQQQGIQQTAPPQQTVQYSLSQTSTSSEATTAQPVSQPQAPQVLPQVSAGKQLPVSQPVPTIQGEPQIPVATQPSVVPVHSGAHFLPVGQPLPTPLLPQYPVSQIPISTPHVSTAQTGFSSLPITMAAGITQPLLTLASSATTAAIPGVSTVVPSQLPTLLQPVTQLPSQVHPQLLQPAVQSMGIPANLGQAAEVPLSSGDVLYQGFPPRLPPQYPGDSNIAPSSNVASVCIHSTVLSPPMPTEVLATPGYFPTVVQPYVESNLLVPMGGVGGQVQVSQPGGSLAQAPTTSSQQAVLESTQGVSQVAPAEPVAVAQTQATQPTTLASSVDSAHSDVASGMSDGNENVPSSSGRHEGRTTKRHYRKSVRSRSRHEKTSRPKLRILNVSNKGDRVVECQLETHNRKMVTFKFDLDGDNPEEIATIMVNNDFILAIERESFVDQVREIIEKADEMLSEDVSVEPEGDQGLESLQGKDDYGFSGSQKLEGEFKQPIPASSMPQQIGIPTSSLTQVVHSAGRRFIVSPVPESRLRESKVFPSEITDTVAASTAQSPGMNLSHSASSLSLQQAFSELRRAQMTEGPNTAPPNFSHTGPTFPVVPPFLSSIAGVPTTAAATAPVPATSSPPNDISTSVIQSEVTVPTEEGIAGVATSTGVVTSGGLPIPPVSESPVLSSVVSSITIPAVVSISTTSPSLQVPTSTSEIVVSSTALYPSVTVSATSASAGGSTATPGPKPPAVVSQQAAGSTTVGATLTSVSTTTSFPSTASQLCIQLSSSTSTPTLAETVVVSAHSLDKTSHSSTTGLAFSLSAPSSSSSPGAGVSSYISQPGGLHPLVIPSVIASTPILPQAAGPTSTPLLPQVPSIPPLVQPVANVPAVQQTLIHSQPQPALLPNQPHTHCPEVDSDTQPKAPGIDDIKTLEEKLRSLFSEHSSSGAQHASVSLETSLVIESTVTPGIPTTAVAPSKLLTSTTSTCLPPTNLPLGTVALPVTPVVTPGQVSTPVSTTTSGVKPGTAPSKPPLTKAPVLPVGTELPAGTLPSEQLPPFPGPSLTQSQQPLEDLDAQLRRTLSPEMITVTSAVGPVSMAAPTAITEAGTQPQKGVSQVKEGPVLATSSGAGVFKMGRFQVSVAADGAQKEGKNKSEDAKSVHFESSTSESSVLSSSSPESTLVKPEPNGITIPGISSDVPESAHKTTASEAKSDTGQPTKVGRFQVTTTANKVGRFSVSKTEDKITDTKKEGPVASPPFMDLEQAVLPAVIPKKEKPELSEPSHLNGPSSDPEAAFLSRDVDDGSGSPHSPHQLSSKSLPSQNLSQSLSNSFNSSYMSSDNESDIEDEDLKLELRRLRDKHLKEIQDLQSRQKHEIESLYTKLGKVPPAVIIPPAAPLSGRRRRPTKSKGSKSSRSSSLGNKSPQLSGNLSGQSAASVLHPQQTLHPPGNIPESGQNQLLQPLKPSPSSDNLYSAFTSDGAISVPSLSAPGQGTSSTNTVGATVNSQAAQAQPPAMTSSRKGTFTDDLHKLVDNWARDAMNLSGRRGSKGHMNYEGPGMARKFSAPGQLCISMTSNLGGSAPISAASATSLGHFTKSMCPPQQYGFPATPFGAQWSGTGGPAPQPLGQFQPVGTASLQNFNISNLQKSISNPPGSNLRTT
Chain of STK25/YSK1 (O00506 whole entry): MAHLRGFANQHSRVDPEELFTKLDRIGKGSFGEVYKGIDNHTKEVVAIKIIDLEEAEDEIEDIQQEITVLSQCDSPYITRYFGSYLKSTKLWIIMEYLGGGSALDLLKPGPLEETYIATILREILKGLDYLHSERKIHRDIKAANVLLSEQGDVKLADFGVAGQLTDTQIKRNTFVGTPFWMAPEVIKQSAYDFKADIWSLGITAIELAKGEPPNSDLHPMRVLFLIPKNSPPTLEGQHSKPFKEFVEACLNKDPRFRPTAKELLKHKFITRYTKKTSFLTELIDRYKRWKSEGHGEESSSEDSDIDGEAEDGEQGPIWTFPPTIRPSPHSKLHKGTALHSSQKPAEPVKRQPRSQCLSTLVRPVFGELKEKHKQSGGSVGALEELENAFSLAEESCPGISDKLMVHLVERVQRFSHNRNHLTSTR
Chain of CDK1/cyclin A (P06493 whole entry): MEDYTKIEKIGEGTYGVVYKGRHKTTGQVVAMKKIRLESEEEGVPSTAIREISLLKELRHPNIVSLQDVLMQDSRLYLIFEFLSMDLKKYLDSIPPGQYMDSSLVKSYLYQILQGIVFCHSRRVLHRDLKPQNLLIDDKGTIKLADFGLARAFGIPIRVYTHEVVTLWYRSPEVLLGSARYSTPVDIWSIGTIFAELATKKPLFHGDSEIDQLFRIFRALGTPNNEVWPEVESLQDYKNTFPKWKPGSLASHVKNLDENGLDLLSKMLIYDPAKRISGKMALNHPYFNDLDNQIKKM
Chain of CDK1/cyclin A (P20248 whole entry partner): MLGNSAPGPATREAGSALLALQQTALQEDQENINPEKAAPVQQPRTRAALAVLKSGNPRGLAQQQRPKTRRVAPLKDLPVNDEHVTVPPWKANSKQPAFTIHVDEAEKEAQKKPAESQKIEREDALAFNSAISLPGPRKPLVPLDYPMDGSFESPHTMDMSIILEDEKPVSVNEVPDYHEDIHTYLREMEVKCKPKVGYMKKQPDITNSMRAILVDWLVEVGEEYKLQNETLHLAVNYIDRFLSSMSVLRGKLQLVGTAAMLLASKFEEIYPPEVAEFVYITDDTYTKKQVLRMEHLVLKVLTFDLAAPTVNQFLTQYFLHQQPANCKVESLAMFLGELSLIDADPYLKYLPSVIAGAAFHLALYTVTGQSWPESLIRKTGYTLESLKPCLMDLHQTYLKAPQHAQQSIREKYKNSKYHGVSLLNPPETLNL
Chain of NEK7 (Q8TDX7 whole entry): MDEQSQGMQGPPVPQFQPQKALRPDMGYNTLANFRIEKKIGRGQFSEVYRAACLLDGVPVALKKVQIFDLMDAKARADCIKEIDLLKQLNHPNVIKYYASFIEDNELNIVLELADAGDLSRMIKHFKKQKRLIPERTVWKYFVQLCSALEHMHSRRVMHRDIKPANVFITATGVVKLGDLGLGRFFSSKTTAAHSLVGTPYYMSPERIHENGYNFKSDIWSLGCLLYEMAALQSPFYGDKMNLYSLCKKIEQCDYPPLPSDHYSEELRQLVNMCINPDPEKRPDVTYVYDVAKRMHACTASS

remaining activity at 0.3 µM (NEK7; [1]): 90.2%
remaining activity at 0.3 µM (NEK7; [2]): 89.5%
remaining activity at 0.3 µM (FGR; [1]): 109%
remaining activity at 0.3 µM (FGR; [2]): 105%
remaining activity at 0.3 µM (P38b/MAPK11; [1]): 102%
remaining activity at 0.3 µM (P38b/MAPK11; [2]): 101%
remaining activity at 0.3 µM (CDK14/cyclin Y (PFTK1); [1]): 91.8%
remaining activity at 0.3 µM (CDK14/cyclin Y (PFTK1); [2]): 90.2%
remaining activity at 0.3 µM (IRAK1; [1]): 87.2%
remaining activity at 0.3 µM (IRAK1; [2]): 83.4%
remaining activity at 0.3 µM (MAST3; [1]): 101%
remaining activity at 0.3 µM (MAST3; [2]): 100%
remaining activity at 0.3 µM (c-Kit; [1]): 85.3%
remaining activity at 0.3 µM (c-Kit; [2]): 85.1%
remaining activity at 0.3 µM (STK25/YSK1; [1]): 85.8%
remaining activity at 0.3 µM (STK25/YSK1; [2]): 80.9%
remaining activity at 0.3 µM (KHS/MAP4K5; [1]): 90%
remaining activity at 0.3 µM (KHS/MAP4K5; [2]): 87%
remaining activity at 0.3 µM (WNK1; [1]): 108%
remaining activity at 0.3 µM (WNK1; [2]): 104%
remaining activity at 0.3 µM (CLK3; [1]): 79.1%
remaining activity at 0.3 µM (CLK3; [2]): 77.3%
remaining activity at 0.3 µM (CDK17/cyclin Y (PCTK2)): 101%
remaining activity at 0.3 µM (MRCKa/CDC42BPA; [1]): 104%
remaining activity at 0.3 µM (MRCKa/CDC42BPA; [2]): 100%
remaining activity at 0.3 µM (MARK3; [1]): 95.4%
remaining activity at 0.3 µM (MARK3; [2]): 91.7%
remaining activity at 0.3 µM (CDK2/cyclin A1; [1]): 67.5%
remaining activity at 0.3 µM (CDK2/cyclin A1; [2]): 63.7%
remaining activity at 0.3 µM (PHKg1; [1]): 30.6%
remaining activity at 0.3 µM (PHKg1; [2]): 29.7%
remaining activity at 0.3 µM (WEE1; [1]): 94.2%
remaining activity at 0.3 µM (WEE1; [2]): 93.6%
remaining activity at 0.3 µM (CDK1/cyclin A; [1]): 102%
remaining activity at 0.3 µM (CDK1/cyclin A; [2]): 101%
remaining activity at 0.3 µM (c-MER; [1]): 106%
remaining activity at 0.3 µM (c-MER; [2]): 104%
remaining activity at 0.3 µM (LCK2/ICK; [1]): 90.2%
remaining activity at 0.3 µM (LCK2/ICK; [2]): 87.9%
Structure (SMILES): COc1cc(N2CCN(C)CC2)c(C)cc1Nc1ncc(Br)c(Nc2cccnc2N(C)C)n1 [TP-5801]
